Results: patent US7192746B2, “α-Isomaltosyltransferase, process for producing the same and use thereof” (Kabushiki Kaisha Hayashibara Seibutsu Kagaku Kenkyujo, priority 2000, dated 2007)

Key:
Type in all cases: biochemical
[1] = system: α-isomaltosyl-transferring enzyme from Arthrobacter globiformis A19; experiment: Specificity to transferring acceptor; parameters: key: −: no saccharide transferred product was formed; ±: a saccharide-transferred product formed in an amount of less than one percent to the total sugars; +: a saccharide-transferred product was formed in an amount of over one percent but below 10% to the total sugars; ++: a saccharide-transferred product was formed in an amount of over 10% to the total sugars; details: partially purified enzyme, panose as saccharide donor, 10 units/g substrate, 3.2% (w/v), 30° C., pH 6.0, 24 hours
Experimental: (§1) Saccharides were tested as follows to examine whether they can be used as transferring acceptors for the α-isomaltosyl-transferring enzyme of the present invention. A solution of D-glucose, D-xylose, L-xylose, D-galactose, D-fructose, D-mannose, D-arabinose, D-fucose, L-sorbose, L-rhamnose, methyl-α-glucoside (or methyl-α-glucopyranoside), methyl-β-glucoside (or methyl-β-glucopyranoside), N-acetyl-D-glucosamine, D-ribose, L-ribose, D-psicose, sorbitol, xylitol, mannitol, arabitol, ribitol, erythritol, maltose, maltotriose, maltotetraose, maltopentaose, isomaltose, isomaltotriose, α,α-trehalose, α,β-trehalose, kojibiose, nigerose, cellobiose, gentibiose, isopanose, maltitol, maltotriitol, lactose, sucrose, erlose, isomaltosylglucoside, α-cyclodextrin, β-cyclodextrin, γ-cyclodextrin, or L-ascorbic acid was prepared. To each solution was added panose as a saccharide donor to give an equal concentration, admixed with 10 units/g substrate of a purified specimen of either α-isomaltosyl-transferring enzyme from Bacillus globisporus C9 obtained by the method in Experiment 4, Bacillus globisporus C11 obtained by the method in Experiment 7, Bacillus globisporus N75 obtained by the method in Experiment 11, or Arthrobacter ramosus S1 obtained by the method in Experiment 15, or a partially purified specimen of α-isomaltosyl-transferring enzyme from Arthrobacter globiformis A19 obtained by the method in Experiment 18, followed by adjusting the saccharide concentration to 3.2% (w/v). The mixtures thus obtained were enzymatically reacted at 30° C. and Ph 6.0 for 24 hours. The saccharide composition of the resulting reaction mixtures were analyzed on gas chromatography (abbreviated as “GLC” hereinafter) for monosaccharides and disaccharides as testing saccharides, and on HPLC for tri- or higher-saccharides as testing saccharides to confirm whether these saccharides can be used as transferring acceptors for the above enzymes with an index of the positive or negative formation of a saccharide transferred product. In performing GLC, the following apparatuses and conditions were used: GLC apparatus, “GC-16A” commercialized by Shimadzu Corporation, Tokyo, Japan; column, a stainless-steel column, 3 mm in diameter and 2 m in length, packed with 2% “SILICONE OV-17/[…]”, commercialized by GL Sciences Inc., Tokyo, Japan; carrier gas, nitrogen gas at a flow rate of 40 ml/min under temperature conditions of increasing from 160° C. to 320° C. at an increasing temperature rate of 7.5° C./min; and detection, a hydrogen flame ionization detector. In the case of HPLC analysis, the apparatuses and conditions used were: HPLC apparatus, “CCPD” commercialized by Tosoh Corporation, Tokyo, Japan; column, “ODS-AQ-303” commercialized by YMC Co., Ltd., Tokyo, Japan; eluent, water at a flow rate of 0.5 ml/min; and detection, a differential refractometer.

[2] = system: α-isomaltosyl-transferring enzyme from Bacillus globisporus N75; experiment: Specificity to transferring acceptor; parameters: key: −: no saccharide transferred product was formed; ±: a saccharide-transferred product formed in an amount of less than one percent to the total sugars; +: a saccharide-transferred product was formed in an amount of over one percent but below 10% to the total sugars; ++: a saccharide-transferred product was formed in an amount of over 10% to the total sugars; details: panose as saccharide donor, 10 units/g substrate, 3.2% (w/v), 30° C., pH 6.0, 24 hours
Experimental: as §1

[3] = system: α-isomaltosyl-transferring enzyme from Bacillus globisporus C11; experiment: Specificity to transferring acceptor; parameters: key: −: no saccharide transferred product was formed; ±: a saccharide-transferred product formed in an amount of less than one percent to the total sugars; +: a saccharide-transferred product was formed in an amount of over one percent but below 10% to the total sugars; ++: a saccharide-transferred product was formed in an amount of over 10% to the total sugars; details: panose as saccharide donor, 10 units/g substrate, 3.2% (w/v), 30° C., pH 6.0, 24 hours
Experimental: as §1

[4] = system: α-isomaltosyl-transferring enzyme from Bacillus globisporus C9; experiment: Specificity to transferring acceptor; parameters: key: −: no saccharide transferred product was formed; ±: a saccharide-transferred product formed in an amount of less than one percent to the total sugars; +: a saccharide-transferred product was formed in an amount of over one percent but below 10% to the total sugars; ++: a saccharide-transferred product was formed in an amount of over 10% to the total sugars; details: panose as saccharide donor, 10 units/g substrate, 3.2% (w/v), 30° C., pH 6.0, 24 hours
Experimental: as §1

[5] = system: α-isomaltosyl-transferring enzyme from Arthrobacter ramosus S1; experiment: Specificity to transferring acceptor; parameters: key: −: no saccharide transferred product was formed; ±: a saccharide-transferred product formed in an amount of less than one percent to the total sugars; +: a saccharide-transferred product was formed in an amount of over one percent but below 10% to the total sugars; ++: a saccharide-transferred product was formed in an amount of over 10% to the total sugars; details: panose as saccharide donor, 10 units/g substrate, 3.2% (w/v), 30° C., pH 6.0, 24 hours
Experimental: as §1

[6] = system: α-isomaltosyl-transferring enzyme from Arthrobacter globiformis A19; experiment: Action on saccharides (substrates, TLC); parameters: key: −: there was found no substrate change before and after the enzymatic reaction; +: there were found both the reduction of substrate and the formation of cyclotetrasaccharide after the enzymatic reaction; details: partially purified enzyme, 2 units/g substrate, 2% (w/v) substrate, 30° C., pH 6.0, 24 hours
Description: (§2) To examine the saccharides in the supernatant, they were separated from the supernatant by silica gel thin-layer chromatography (abbreviated as “TLC” hereinafter) using, as a developer, a mixture solution of n-butanol, pyridine, and water (=6:4:1), and, as a thin-layer plate, “[…] 60”, an aluminum plate (20×20 cm) for TLC commercialized by […]. The coloration of both the separated total sugars by the sulfuric acid-methanol method and the reducing saccharides by the diphenylamine-aniline method detected a non-reducing saccharide at a position with an Rf value of about 0.31, which was positive on the former detection method but negative on the latter detection method.
(§3) It was tested whether saccharides can be used as substrates for the α-isomaltosyl-transferring enzyme. For the purpose, a solution of maltose, maltotriose, maltotetraose, maltopentaose, maltohexaose, maltoheptaose, isomaltose, isomaltotriose, panose, isomaltosylmaltose, isopanose, α,α-trehalose, kojibiose, nigerose, α,β-trehalose, cellobiose, gentibiose, maltitol, maltotriitol, lactose, sucrose, α-cyclodextrin, β-cyclodextrin, γ-cyclodextrin, soluble starch, pullulan, or dextran was prepared. To each of the above solutions was added two units/g substrate of a purified specimen of either α-isomaltosyl-transferring enzyme from Bacillus globisporus C9 obtained by the method in Experiment 4, Bacillus globisporus C11 obtained by the method in Experiment 7, Bacillus globisporus N75 obtained by the method in Experiment 11, or Arthrobacter ramosus S1 obtained by the method in Experiment 15, or a partially purified α-isomaltosyl-transferring enzyme from Arthrobacter globiformis A19 obtained by the method in Experiment 15. The resulting each solution was adjusted to give a substrate concentration of 2% (w/v) and incubated at 30° C. and pH 6.0 for 24 hours. The enzyme solutions before and after the enzymatic reactions were respectively analyzed on TLC as disclosed in Experiment 1 to confirm whether the enzymes acted on these substrates.

[7] = system: α-isomaltosyl-transferring enzyme from Bacillus globisporus N75; experiment: Action on saccharides (substrates, TLC); parameters: key: −: there was found no substrate change before and after the enzymatic reaction; +: there were found both the reduction of substrate and the formation of cyclotetrasaccharide after the enzymatic reaction; details: 2 units/g substrate, 2% (w/v) substrate, 30° C., pH 6.0, 24 hours
Description: as §2, §3

[8] = system: α-isomaltosyl-transferring enzyme from Bacillus globisporus C11; experiment: Action on saccharides (substrates, TLC); parameters: key: −: there was found no substrate change before and after the enzymatic reaction; +: there were found both the reduction of substrate and the formation of cyclotetrasaccharide after the enzymatic reaction; details: 2 units/g substrate, 2% (w/v) substrate, 30° C., pH 6.0, 24 hours
Description: as §2, §3

[9] = system: α-isomaltosyl-transferring enzyme from Bacillus globisporus C9; experiment: Action on saccharides (substrates, TLC); parameters: key: −: there was found no substrate change before and after the enzymatic reaction; +: there were found both the reduction of substrate and the formation of cyclotetrasaccharide after the enzymatic reaction; details: 2 units/g substrate, 2% (w/v) substrate, 30° C., pH 6.0, 24 hours
Description: as §2, §3

[10] = system: α-isomaltosyl-transferring enzyme from Arthrobacter ramosus S1; experiment: Action on saccharides (substrates, TLC); parameters: key: −: there was found no substrate change before and after the enzymatic reaction; +: there were found both the reduction of substrate and the formation of cyclotetrasaccharide after the enzymatic reaction; details: 2 units/g substrate, 2% (w/v) substrate, 30° C., pH 6.0, 24 hours
Description: as §2, §3

Compound | Product of transferring reaction, Enzyme of Stain A19 [1] | Product of transferring reaction, Enzyme of Strain N75 [2] | Product of transferring reaction, Enzyme of Strain C11 [3] | Product of transferring reaction, Enzyme of Strain C9 [4] | Product of transferring reaction, Enzyme of Strain S1 [5] | Enzymatic action for forming cyclotetrasaccharide, Enzyme of Strain A19 [6] | Enzymatic action for forming cyclotetrasaccharide, Enzyme of Strain N75 [7] | Enzymatic action for forming cyclotetrasaccharide, Enzyme of Strain C11 [8] | Enzymatic action for forming cyclotetrasaccharide, Enzyme of Strain C9 [9] | Enzymatic action for forming cyclotetrasaccharide, Enzyme of Strain S1 [10]
O=C[C@H](O)[C@@H](O)[C@H](O[C@@H]1O[C@H](CO)[C@@H](O)[C@H](O)[C@H]1O)[C@H](O)CO [Cellobiose, cellobiose] | + (a saccharide-transferred product was formed in an amount of over one percent but below 10% to the total sugars) | + (a saccharide-transferred product was formed in an amount of over one percent but below 10% to the total sugars) | + (a saccharide-transferred product was formed in an amount of over one percent but below 10% to the total sugars) | + (a saccharide-transferred product was formed in an amount of over one percent but below 10% to the total sugars) | + (a saccharide-transferred product was formed in an amount of over one percent but below 10% to the total sugars) | − | − | − | − | −
OC[C@H]1O[C@H](OC[C@H]2O[C@H](O[C@H]3[C@H](O)[C@@H](O)[C@@H](O[C@H]4[C@H](O)[C@@H](O)C(O)O[C@@H]4CO)O[C@@H]3CO)[C@H](O)[C@@H](O)[C@@H]2O)[C@H](O)[C@@H](O)[C@@H]1O (stereo partly drawn) [Isomaltosylmaltose, isomaltosylmaltose] |  |  |  |  |  | + | + | + | + | +
OC[C@H]1O[C@H](OC[C@H]2O[C@H](O[C@H]3[C@H](O)[C@@H](O)C(O)O[C@@H]3CO)[C@H](O)[C@@H](O)[C@@H]2O)[C@H](O)[C@@H](O)[C@@H]1O (stereo partly drawn) [Panose, panose] |  |  |  |  |  | + | + | + | + | +
OC[C@@H](O)[C@@H](O)[C@H](O)[C@@H](O)CO [Sorbitol, sorbitol] | ± (a saccharide-transferred product formed in an amount of less than one percent to the total sugars) | − | − | − | ± (a saccharide-transferred product formed in an amount of less than one percent to the total sugars) |  |  |  |  | 
OC[C@@H](O)[C@H](O)[C@@H](O)CO [Xylitol, xylitol] | ± (a saccharide-transferred product formed in an amount of less than one percent to the total sugars) | − | − | − | ± (a saccharide-transferred product formed in an amount of less than one percent to the total sugars) |  |  |  |  | 
isomaltosylglucoside | ++ (a saccharide-transferred product was formed in an amount of over 10% to the total sugars) | ++ (a saccharide-transferred product was formed in an amount of over 10% to the total sugars) | ++ (a saccharide-transferred product was formed in an amount of over 10% to the total sugars) | ++ (a saccharide-transferred product was formed in an amount of over 10% to the total sugars) | ++ (a saccharide-transferred product was formed in an amount of over 10% to the total sugars) |  |  |  |  | 
maltoheptaose |  |  |  |  |  | − | − | − | − | −
maltohexaose |  |  |  |  |  | − | − | − | − | −
